According to patent publication US9994547B2, “Heteroarylamide inhibitors of TBK1” (Takeda Pharmaceutical Company Limited, priority 2014, dated 2018):

What follows are molecules tested against Full length human TBK1 (Homo sapiens (Human), UniProt Q9UHD2) (assay: Inhibition of TBK1 Enzyme (Example A)). Conditions: -log(IC50), IC50 molar; 3 nM TBK1, 25 μM ATP, 60 min RT.
Sequence of Full length human TBK1 (Q9UHD2 whole entry): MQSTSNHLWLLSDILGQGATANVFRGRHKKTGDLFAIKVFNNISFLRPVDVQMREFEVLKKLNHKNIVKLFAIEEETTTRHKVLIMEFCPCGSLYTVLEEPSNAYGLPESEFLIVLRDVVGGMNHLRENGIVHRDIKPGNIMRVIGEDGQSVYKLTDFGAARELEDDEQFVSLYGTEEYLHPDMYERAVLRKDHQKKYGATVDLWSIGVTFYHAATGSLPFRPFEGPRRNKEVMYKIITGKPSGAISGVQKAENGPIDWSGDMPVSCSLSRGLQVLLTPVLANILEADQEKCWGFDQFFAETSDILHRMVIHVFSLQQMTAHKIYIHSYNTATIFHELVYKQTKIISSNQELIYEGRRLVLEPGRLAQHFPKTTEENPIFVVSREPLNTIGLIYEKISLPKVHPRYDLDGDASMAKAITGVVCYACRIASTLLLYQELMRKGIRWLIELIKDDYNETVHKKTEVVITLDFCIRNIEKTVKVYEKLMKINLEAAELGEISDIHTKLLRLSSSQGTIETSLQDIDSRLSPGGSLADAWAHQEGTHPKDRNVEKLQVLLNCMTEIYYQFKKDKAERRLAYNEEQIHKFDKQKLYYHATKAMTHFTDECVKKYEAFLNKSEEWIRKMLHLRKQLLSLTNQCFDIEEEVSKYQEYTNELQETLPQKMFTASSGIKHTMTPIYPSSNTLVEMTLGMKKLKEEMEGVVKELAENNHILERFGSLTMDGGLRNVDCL
Type: biochemical
In short: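 Full-length N-His human TBK1 from Sf9 baculovirus was tested with 11-point 2.5-fold dilutions (1% DMSO) in Hepes pH 7.4, MgCl2, EDTA, Brij, DTT. After 60 min RT and EDTA quench, microfluidic conversion was fitted and reported as pIC50.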
`C[C@H](Nc1cc(-c2cnc(NC(=O)C3CC3)cn2)ccc1C#N)C(=O)N1CC(O)C1` [Example 11, (S)-N-(5-(4-cyano-3-((1-(3-hydroxyazetidin-1-yl)-1-oxopropan-2-yl)amino)phenyl)pyrazin-2-yl)cyclopropanecarboxamide] was tested, and the “TBK1 Inhibition (pIC50)” value was 6.7. For `N#Cc1ncc(-c2cnc(NC(=O)C3CC3)cn2)cc1NCC(=O)N1CCOC[C@@H]1CF` [Example 75, (R)-N-(5-(6-cyano-5-((2-(3-(fluoromethyl)morpholino)-2-oxoethyl)amino)pyridin-3-yl)pyrazin-2-yl)cyclopropanecarboxamide], the “TBK1 Inhibition (pIC50)” value was 6.9. `CC(Nc1cc(-c2cnc(NC(=O)C3CC3)cn2)cnc1C#N)C(=O)N(C)CC(F)F` (centres unmarked) [Example 46, N-(5-(6-cyano-5-((1-((2,2-difluoroethyl)(methyl)amino)-1-oxopropan-2-yl)amino)pyridin-3-yl)pyrazin-2-yl)cyclopropanecarboxamide] was tested, and the “TBK1 Inhibition (pIC50)” value was 8.0. `C[C@H](Nc1cc(-c2cnc(NC(=O)C3CC3)cn2)ccc1C#N)C(=O)N1CCC1` [Example 9, (S)-N-(5-(3-((1-(azetidin-1-yl)-1-oxopropan-2-yl)amino)-4-cyanophenyl)pyrazin-2-yl)cyclopropanecarboxamide] was tested, and the “TBK1 Inhibition (pIC50)” value was 6.7. In the case of `CN(CCS(C)(=O)=O)C(=O)CNc1cc(-c2cnc(NC(=O)C3CC3)cn2)cnc1C#N` [Example 66, N-(5-(6-cyano-5-((2-(methyl(2-(methylsulfonyl)ethyl)amino)-2-oxoethyl)amino)pyridin-3-yl)pyrazin-2-yl)cyclopropanecarboxamide], the “TBK1 Inhibition (pIC50)” value is reported as 6.6. With `CN(C)C(=O)[C@H](CC(F)F)Nc1cc(-c2cnc(NC(=O)C3CC3)cn2)ccc1C#N` [Example 34, (S)-N-(5-(4-cyano-3-((1-(dimethylamino)-4,4-difluoro-1-oxobutan-2-yl)amino)phenyl)pyrazin-2-yl)cyclopropanecarboxamide] the “TBK1 Inhibition (pIC50)” value was 8.2. For `CCC(Nc1cc(-c2cnc(NC(=O)C3CC3)cn2)cnc1C#N)C(=O)N(C)CCO` (centres unmarked) [Example 35, N-(5-(6-cyano-5-((1-((2-hydroxyethyl)(methyl)amino)-1-oxobutan-2-yl)amino)pyridin-3-yl)pyrazin-2-yl)cyclopropanecarboxamide], the “TBK1 Inhibition (pIC50)” value was 6.9. `CN1CC(N(C)C(=O)CNc2cc(-c3cnc(NC(=O)C4CC4)cn3)cnc2C#N)C1` [Example 105, N-(5-(6-cyano-5-((2-(methyl(1-methylazetidin-3-yl)amino)-2-oxoethyl)amino)pyridin-3-yl)pyrazin-2-yl)cyclopropanecarboxamide] was tested, and the “TBK1 Inhibition (pIC50)” value was 5.6. `C[C@H](Nc1cc(-c2cnc(NC(=O)C3CC3)cn2)cnc1C#N)C(=O)N1CCC[C@@H]1C#N` [Example 55, N-(5-(6-cyano-5-(((S)-1-((R)-2-cyanopyrrolidin-1-yl)-1-oxopropan-2-yl)amino)pyridin-3-yl)pyrazin-2-yl)cyclopropanecarboxamide] was tested, and the “TBK1 Inhibition (pIC50)” value was 7.6. With `CC1CC1C(=O)Nc1cnc(-c2cnc(C#N)c(NCC(=O)N(C)C)c2)cn1` (centres unmarked) [Example 145, N-(5-(6-cyano-5-((2-(dimethylamino)-2-oxoethyl)amino)pyridin-3-yl)pyrazin-2-yl)-2-methylcyclopropanecarboxamide] the “TBK1 Inhibition (pIC50)” value was 7.1. For `CC[C@H](Nc1cc(-c2cnc(NC(=O)C3CC3)cn2)cnc1C#N)C(=O)N(C)CCF` [Example 56, (S)-N-(5-(6-cyano-5-((1-((2-fluoroethyl)(methyl)amino)-1-oxobutan-2-yl)amino)pyridin-3-yl)pyrazin-2-yl)cyclopropanecarboxamide], the “TBK1 Inhibition (pIC50)” value was 7.7. `CN(C)C(=O)[C@H](CC(F)F)Nc1cc(-c2cnc(NC(=O)C3CC3)cn2)cnc1C#N` [Example 80, (S)-N-(5-(6-cyano-5-((1-(dimethylamino)-4,4-difluoro-1-oxobutan-2-yl)amino)pyridin-3-yl)pyrazin-2-yl)cyclopropanecarboxamide] was tested, and the “TBK1 Inhibition (pIC50)” value was 7.4. For `CC(Nc1cc(-c2cnc(NC(=O)C3CC3)cn2)ccc1C#N)C(=O)N(C)C` (centres unmarked) [Example 3, N-(5-(4-cyano-3-((1-(dimethylamino)-1-oxopropan-2-yl)amino)phenyl)pyrazin-2-yl)cyclopropanecarboxamide], the “TBK1 Inhibition (pIC50)” value was 7.9. For `CN(C)C(=O)C(CCO)Nc1cc(-c2cnc(NC(=O)C3CC3)cn2)ccc1C#N` (centres unmarked) [Example 28, N-(5-(4-cyano-3-((1-(dimethylamino)-4-hydroxy-1-oxobutan-2-yl)amino)phenyl)pyrazin-2-yl)cyclopropanecarboxamide], the “TBK1 Inhibition (pIC50)” value was 6.9. In the case of `CN(CCF)C(=O)C(CC(F)F)Nc1cc(-c2cnc(NC(=O)C3CC3)cn2)cnc1C#N` (centres unmarked) [Example 85, N-(5-(6-cyano-5-((4,4-difluoro-1-((2-fluoroethyl)(methyl)amino)-1-oxobutan-2-yl)amino)pyridin-3-yl)pyrazin-2-yl)cyclopropanecarboxamide], the “TBK1 Inhibition (pIC50)” value is reported as 7.1. With `CCN(C)C(=O)[C@H](C)Nc1cc(-c2cnc(NC(=O)C3CC3)cn2)ccc1C#N` [Example 12, (S)-N-(5-(4-cyano-3-((1-(ethyl(methyl)amino)-1-oxopropan-2-yl)amino)phenyl)pyrazin-2-yl)cyclopropanecarboxamide] the “TBK1 Inhibition (pIC50)” value was 8.0. `COCC(Nc1cc(-c2cnc(NC(=O)C3CC3)cn2)cnc1C#N)C(=O)N(C)C` (centres unmarked) [Example 42, N-(5-(6-cyano-5-((1-(dimethylamino)-3-methoxy-1-oxopropan-2-yl)amino)pyridin-3-yl)pyrazin-2-yl)cyclopropanecarboxamide] was tested, and the “TBK1 Inhibition (pIC50)” value was 6.8. For `N#Cc1ncc(-c2cnc(NC(=O)C3CC3)cn2)cc1NCC(=O)N1CC2(COC2)C1` [Example 104, N-(5-(6-cyano-5-((2-oxo-2-(2-oxa-6-azaspiro[3.3]heptan-6-yl)ethyl)amino)pyridin-3-yl)pyrazin-2-yl)cyclopropanecarboxamide], the “TBK1 Inhibition (pIC50)” value was 5.4. In the case of `N#Cc1ncc(-c2cnc(NC(=O)C3CC3)cn2)cc1NCC(=O)N(CCCO)CC(F)(F)F` [Example 90, N-(5-(6-cyano-5-((2-((3-hydroxypropyl)(2,2,2-trifluoroethyl)amino)-2-oxoethyl)amino)pyridin-3-yl)pyrazin-2-yl)cyclopropanecarboxamide], the “TBK1 Inhibition (pIC50)” value is reported as 5.6. For `CC1CC1C(=O)Nc1cnc(-c2cnc(C#N)c(NCC(N)=O)c2)cn1` (centres unmarked) [Example 144, N-(5-(5-((2-amino-2-oxoethyl)amino)-6-cyanopyridin-3-yl)pyrazin-2-yl)-2-methylcyclopropanecarboxamide], the “TBK1 Inhibition (pIC50)” value was 5.6. In the case of `CN(C(=O)CNc1cc(-c2cnc(NC(=O)C3CC3)cn2)ccc1C#N)C1CC1` [Example 25, N-(5-(4-cyano-3-((2-(cyclopropyl(methyl)amino)-2-oxoethyl)amino)phenyl)pyrazin-2-yl)cyclopropanecarboxamide], the “TBK1 Inhibition (pIC50)” value is reported as 7.4. In the case of `CN(CCC#N)C(=O)CNc1cc(-c2cnc(NC(=O)C3CC3)cn2)cnc1C#N` [Example 65, N-(5-(6-cyano-5-((2-((2-cyanoethyl)(methyl)amino)-2-oxoethyl)amino)pyridin-3-yl)pyrazin-2-yl)cyclopropanecarboxamide], the “TBK1 Inhibition (pIC50)” value is reported as 6.9. With `C[C@H](Nc1cc(-c2cnc(NC(=O)[C@H]3C[C@H]3C)cn2)cnc1C#N)C(=O)N(C)C` [Example 109, (1S,2R)-N-(5-(6-cyano-5-(((S)-1-(dimethylamino)-1-oxopropan-2-yl)amino)pyridin-3-yl)pyrazin-2-yl)-2-methylcyclopropanecarboxamide] the “TBK1 Inhibition (pIC50)” value was 7.2. With `COCCN(CC(F)F)C(=O)CNc1cc(-c2cnc(NC(=O)C3CC3)cn2)cnc1C#N` [Example 82, N-(5-(6-cyano-5-((2-((2,2-difluoroethyl)(2-methoxyethyl)amino)-2-oxoethyl)amino)pyridin-3-yl)pyrazin-2-yl)cyclopropanecarboxamide] the “TBK1 Inhibition (pIC50)” value was 7.8. In the case of `COCC[C@H](Nc1cc(-c2cnc(NC(=O)C3CC3)cn2)ccc1C#N)C(=O)N(C)C` [Example 7, (S)-N-(5-(4-cyano-3-((1-(dimethylamino)-4-methoxy-1-oxobutan-2-yl)amino)phenyl)pyrazin-2-yl)cyclopropanecarboxamide], the “TBK1 Inhibition (pIC50)” value is reported as 8.2. In the case of `C[C@H](Nc1cc(-c2cnc(NC(=O)C3CC3CO)cn2)cnc1C#N)C(=O)N(C)CC(F)F` (stereo partly drawn) [Example 146, N-(5-(6-cyano-5-(((S)-1-((2,2-difluoroethyl)(methyl)amino)-1-oxopropan-2-yl)amino)pyridin-3-yl)pyrazin-2-yl)-2-(hydroxymethyl)cyclopropanecarboxamide], the “TBK1 Inhibition (pIC50)” value is reported as 8.1. For `CCC(C#N)N(C)C(=O)CNc1cc(-c2cnc(NC(=O)C3CC3)cn2)cnc1C#N` (centres unmarked) [Example 92, N-(5-(6-cyano-5-((2-((1-cyanopropyl)(methyl)amino)-2-oxoethyl)amino)pyridin-3-yl)pyrazin-2-yl)cyclopropanecarboxamide], the “TBK1 Inhibition (pIC50)” value was 6.2. In the case of `C[C@H](Nc1cc(-c2cnc(NC(=O)C3CC3)cn2)cnc1C#N)C(=O)N(C)CCF` [Example 54, (S)-N-(5-(6-cyano-5-((1-((2-fluoroethyl)(methyl)amino)-1-oxopropan-2-yl)amino)pyridin-3-yl)pyrazin-2-yl)cyclopropanecarboxamide], the “TBK1 Inhibition (pIC50)” value is reported as 8.0. `CC1CC1C(=O)Nc1cnc(-c2cnc(C#N)c(N[C@@H](C)C(=O)N(C)CC(F)F)c2)cn1` (stereo partly drawn) [Example 86, N-(5-(6-cyano-5-(((S)-1-((2,2-difluoroethyl)(methyl)amino)-1-oxopropan-2-yl)amino)pyridin-3-yl)pyrazin-2-yl)-2-methylcyclopropanecarboxamide] was tested, and the “TBK1 Inhibition (pIC50)” value was 8.4.
